In article PMC12648657, “Sc(III) Complexes of 1,4,7-Triazacyclononane-1,4,7-triacetic Acid and Its Monoamides” (Inorganic Chemistry, 2025):

Legend:
[1] = Sc^III complexes of other ligands; literature values; cited from earlier work
[2] = comparison table; literature value; cited from earlier work
[3] = comparison table; literature value; cited from earlier work; remark: listed apart in the source
[4] = comparison table; literature value; cited from earlier work; remark: listed apart in the source
[5] = comparison table; literature value; cited from earlier work; remark: listed apart in the source
[6] = comparison table; literature value; cited from earlier work; remark: listed apart in the source
[7] = Potentiometric determination of stability constants of Sc^III complexes; assay type: physicochemical; details: for log K, [Sc(L)] + HL ↔ [M(HL)(L)]: I = 0.1 M NMe4Cl, coordination of second ligand molecule
Description: Potentiometry was carried out according to the previously published procedures; for the preparation of stock solutions and chemicals, equipment, electrode system calibration, titration procedures and data treatment, see refs – . Throughout the paper, pH means −log[H^+]. The protonation and stability constants were determined in 0.1 M (NMe4)Cl at 25.0 °C with pK w = 13.81. The Sc^III–H3nota system was studied by in-cell titrations from data obtained in the pH range 1.6–12 with ∼40 points per titration and four parallel titrations (c L = 0.004 M, c Sc = 0.004 or 0.002 M). The Sc^III–H2 L ^1 and Sc^III–H2 L ^2 systems were studied by a combination of the out-of-cell and in-cell methods. The out-of-cell method was performed at 1:1 ligand-to-metal ratio (c L = c Sc = 0.004 M, pH 1.5–5.0, 15–25 points per titration), and the in-cell method was performed at 1:1 and 2:1 ligand-to-metal ratios (c L = c Sc = 0.004, pH 5.0–12.0 or until precipitation of hydroxide, 15–20 points per titration; or c L = 0.004 M, c M = 0.002 M, pH 2.0–11.5, ∼40 points per titration). […] Stability constants for the Sc^III–OH^– system were taken from the literature. Protonation constants of ligands were adopted from literature–H3nota: 13.17, 5.74, 3.22, 1.96, 0.70; H2 L ^1 : 13.03, 4.24, 2.04, 0.67; H2 L ^2 : 12.93, 4.91, 2.48, 0.92.
High thermodynamic stability of complexes is an important property of metal complexes used in radio medicine. Thus, stability constants of the Sc^III complexes with the studied chelators were determined by potentiometry. Complexation of Sc^III by H3nota was fast, and thus, it was studied by the direct titration technique (in-cell method). Complexation of Sc^III by H2 L ^1 and H2 L ^2 was slower in the acidic region (pH < 3) and, thus, the batch titrations (out-of-cell method) had to be applied. In addition, the systems were studied in-cell in the neutral and weakly alkaline regions. The strongly alkaline region cannot be studied in the Sc^III–H2 L ^1 and Sc^III–H2 L ^2 systems due to decomposition of the complexes and precipitation of Sc^III hydroxide.

[8] = Solution stability of Sc^III complexes (alkaline solution, excess oxalate); assay type: physicochemical; details: slowly decompose in strongly alkaline solutions or under excess oxalate, yielding insoluble Sc^III oxalate or hydroxide
Description: The NMR experiments were carried out on the Bruker Avance III 600 (with a cryoprobe), Bruker Avance III HD 400 or Varian VNMRS 300 MHz or Varian Unity Inova-400 spectrometers in 5 mm tubes. Chemical shifts are given in ppm, and the coupling constants are in Hz. All NMR spectra were collected at 25 °C. The shifts were referenced with external standards: 0.1% tBuOH in D2O (^1H δ 1.25 ppm, ^13C δ 30.30 ppm). External reference for ^45Sc was 0.1 M solution of Sc(ClO4)3 in 1 M aq. HClO4. The pH of samples was adjusted with diluted aq. HCl or aq. LiOH (∼0.5%), or maintained with 0.25 M imidazole/HCl buffer. Binary complexes were prepared by mixing solid ligands (typically at a final concentration of 25 mM) with standardized ScCl3 solution in Sc/L 1:1 or 1:2 molar ratios. Ternary complexes with oxalate anions were studied by mixing a lithium(I) oxalate aq. solution (25 mM) and variable amounts of stock solutions (200 mM) of Sc^III complexes with the studied ligands.

Row | Overall stability constant logβ, Sc + L ⇄ [Sc(L)] ([7]; I = 0.1M (NMe4)Cl, 25 °C) | log K, Sc + L ↔ [Sc(L)] ([7]; I = 0.1M (NMe4)Cl, 25 °C) | log K, [Sc(L)(OH)] + H+ ↔ [M(L)(H2O)] ([7]; I = 0.1M (NMe4)Cl, 25 °C) | log K, [Sc(L)] + HL ↔ [M(HL)(L)] ([7]; 25 °C) | Structure (SMILES) | log K [M(L)] of Sc^III complex [1] | Stability constant log K ML, Cu^II [5] | Stability constant log K ML, Zn^II [6] | also measured
1 |  |  |  |  | O=C(O)CN1CCN(Cc2cccc(C(=O)O)n2)CCN(CP(=O)(O)O)CC1 [H4mpatcn-P] | 21–26 |  |  | 
2 | 19.50(1) | 19.50 | 7.77 | 3.11 | O=C(O)CN1CCN(CC(=O)O)CCN(CC(=O)O)CC1 [H3nota, 1,4,7-Triazacyclononane-1,4,7-triacetic Acid] |  | 23.33 | 22.32 | Stability constant log K ML, Ga^III [2]: 29.60; Stability constant log K ML, Cd^II [3]: 17.87; Stability constant log K ML, Pb^II [4]: 18.18; Overall stability constant logβ, Sc + 2 L + H+ ⇄ [Sc(HL)(L)] ([7]; I = 0.1M (NMe4)Cl, 25 °C): 35.78(6); Overall stability constant logβ, Sc + L + H2O ⇄ [Sc(L)(OH)] + H+ ([7]; I = 0.1M (NMe4)Cl, 25 °C): 11.73(2); Stability constant log K ML, Sc^III ([7]; comparison table): 19.50
3 |  |  |  |  | O=C(O)CN1CCN(CC(=O)O)CCN(Cc2cccc(P(=O)(O)O)n2)CC1 [H4mpatcn-PyP] | 21–26 |  |  | 
4 | 16.64(1) | 16.64 | 7.36 | 2.86 | CCNC(=O)CN1CCN(CC(=O)O)CCN(CC(=O)O)CC1 [H2 L ^1] |  | 21.37 | 18.89 | Stability of Sc^III complex in solution [8]: limited stability
5 |  |  |  |  | O=C([O-])CN(CCN(CC(=O)[O-])CC(=O)[O-])CCN(CC(=O)[O-])CC(=O)[O-].[Sc+3] [[Sc(dtpa)]^2–] | 27.43 |  |  | 
6 |  |  |  |  | O=C([O-])CN1CCN(CC(=O)[O-])CCN(Cc2cccc(C(=O)[O-])n2)CC1.[Sc+3] [[Sc(mpatcn)]] | 21–26 |  |  | 
